Measured values taken from paper PMC7269146, “Jingzhaotoxin-X, a gating modifier of Kv4.2 and Kv4.3 potassium channels purified from the venom of the Chinese tarantula Chilobrachys jingzhao” (The Journal of Venomous Animals and Toxins Including …, 2020).
Where a SMILES comes first, the peptide text is derived from it. Bridges are numbered along the chain shown (N, C = ends).

Tests used:
Kv4.2 = target: T1, Kv4.2 (Rattus norvegicus, UniProt Q63881); experiment: whole-cell patch-clamp, Kv4.2 in HEK293t cells, concentration-response and time course; type: cell-based
T1 construct: expressed in transfected cells; host or cells: HEK293t
T1 sequence (Q63881 1-630): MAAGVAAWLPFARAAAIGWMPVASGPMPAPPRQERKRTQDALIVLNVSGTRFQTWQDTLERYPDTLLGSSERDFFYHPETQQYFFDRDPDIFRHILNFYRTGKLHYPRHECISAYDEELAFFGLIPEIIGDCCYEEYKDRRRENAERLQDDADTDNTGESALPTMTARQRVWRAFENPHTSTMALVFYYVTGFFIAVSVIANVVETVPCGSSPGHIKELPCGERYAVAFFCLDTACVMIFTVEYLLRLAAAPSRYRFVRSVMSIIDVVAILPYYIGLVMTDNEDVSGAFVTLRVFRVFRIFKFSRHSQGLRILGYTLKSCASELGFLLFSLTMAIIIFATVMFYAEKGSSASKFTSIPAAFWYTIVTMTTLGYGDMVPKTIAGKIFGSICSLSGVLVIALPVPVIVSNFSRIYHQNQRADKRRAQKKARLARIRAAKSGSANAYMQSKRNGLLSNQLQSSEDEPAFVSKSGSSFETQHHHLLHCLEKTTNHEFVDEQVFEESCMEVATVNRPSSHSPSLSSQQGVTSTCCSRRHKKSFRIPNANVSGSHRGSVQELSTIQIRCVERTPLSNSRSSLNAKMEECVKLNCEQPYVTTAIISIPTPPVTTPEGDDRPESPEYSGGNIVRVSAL
Source text: Rat cDNA genes encoding Kv4.2 (Accession: NM_031730.2) and Kv4.3 (Accession: AB003587.1) were subcloned to vector pcDNA3.1. In addition, human cDNA genes encoding Nav1.7 (Accession: DQ857292.1) and Nav1.5 (Accession: AB158469.2) were subcloned to vectors pcDNA3.1-mod and pcDNA3.1, separately. Then, Kv4.2, Kv4.3, Nav1.5 and Nav1.7 constructs were transiently transfected into the human embryonic kidney 293t (HEK293t) cells using lipofectamine 2000 (Invitrogen, USA) in accordance with manufacturer protocols. Thereafter, HEK293 cells were inoculated within Dulbecco’s modified Eagle’s medium (DMEM) containing 10% fetal bovine serum (FBS) at 5% CO2 and 37°C. The Kv4.3 channel and the Kv4.2 counterpart were then transfected in the absence of β subunit. Subsequently, cells were incubated with a DNA-lipofectamine mixture (one reporter plasmid for green fluorescence protein and channel constructs) for 4-6 h, and were washed with the fresh medium.
An EPC-10 patch-clamp amplifier (HEKA, Germany) was employed to record the potassium currents at the configuration of whole-cell patch-clamp under an ambient temperature of 22-25°C. The resistance was 2.0-3.0 MΩ when the recording pipette contained a full volume of internal solution (supplemented with 140 mM KCl, 10 mM HEPES, 2.5 mM MgCl2, 5 mM ATP and 11 mM EGTA). KOH was utilized to adjust the pH to 7.2, while sucrose was employed to adjust the osmolarity to 310 mOsm/L. The culture medium was replaced with an external solution containing 150 mM NaCl, 2.5 mM CaCl2, 10 mM HEPES, 2 mM MgCl2, 5 mM KCl, and 10 mM D-glucose. Similarly, sucrose and NaOH were applied to adjust the osmolarity to 330 mOsm/L and pH to 7.4. […] The series resistance was maintained at about 5 MΩ, with 65-70% compensation. Finally, the leakage currents and linear capacitance were subtracted digitally according to the P/4 protocol. […]
On-rates were determined by fitting time course data with a single exponential decay function (2): y = Ae^-kx + C, where x is the time, A is the normalized current value before the application of toxin (usually 1.0), and C is the final normalized current value following the block by the toxin. The on-rate (τon) was determined from the inverse of the rate constant k.
Off-rates were determined by fitting time course data with a double exponential association function (3): y = A(1-e^-kx) + B(1-e^-fx) + C, where x is the time, A or B is the normalized current value after washout of the toxin (usually 1.0 if complete washout occurred), and C is the normalized current value before the washout of the toxin. The off-rate (τoff) was determined from the inverse of the rate constant k or f.

[1] = rotarod performance test in mice; type: in vivo, mouse (male C57BL/6); conditions: 40 nmol/kg, n = 8; for time on accelerating rotarod: 1 h following treatment, cutoff 300 s
Description: In the present study, male C57BL/6 mice weighing 20-25 g were utilized. This study was performed following the Guide for the Care and Use of Laboratory Animals released by the United States National Institutes of Health (US NIH). Our study protocol was approved by the Animal Experiments Ethics Committee at Central Southern University (No. 2018-2-6). Each operation was performed under isoflurane-induced anesthesia to reduce pain and minimize animal suffering. Lumbar puncture was also conducted for intrathecal injection, as described previously. Next, the effect of JZTX-X on nociception was evaluated by assessing the behaviors during the mechanical hyperalgesia process. The JZTX-X-induced mechanical hyperalgesia was investigated by two experiments via various administration routes, including intrathecal and intraplantar injections. Then, animals were challenged via intrathecal (10 µL) or intraplantar (20 µL) injection of JZTX-X (40 nmol/kg). The control group was given a physiological solution, which contained 0.9% NaCl, […].
A rotarod accelerator treadmill (Med Associates Inc., St. Albans, VT) was utilized for rotarod performance tests, so as to determine […] motor function as previously described. Motor learning was also carried out by rotarod tests for evaluating the mice’s capacity to stay on the accelerating rotating drum. In JZTX-X- and saline- groups, all animals were acclimated for 30 min within the testing room, and placed for 300 s onto the rotarod that accelerated from 4 to 40 rpm. In addition, the latency time for animals falling from the rod was calculated before and after toxin injection, from the beginning of acceleration to falling onto the drum, and the maximum cutoff time was 300 s.

CC(C)C[C@@H]1NC(=O)[C@H](CCCCN)NC(=O)[C@H](Cc2ccc(O)cc2)NC(=O)[C@@H]2CSSC[C@@H]3NC(=O)[C@H](Cc4ccc(O)cc4)NC(=O)[C@H](Cc4ccccc4)NC(=O)CNC(=O)[C@H](C)NC(=O)[C@H](CSSC[C@H](NC(=O)[C@@H](N)CC(C)C)C(=O)N[C@@H](CO)C(=O)N[C@@H](CCCNC(=N)N)C(=O)N[C@@H](CCC(=O)O)C(=O)NCC(=O)N[C@@H](CCC(=O)O)C(=O)N[C@@H](Cc4ccccc4)C(=O)N2)NC(=O)[C@H](CSSC[C@@H](C(=O)N[C@@H](Cc2ccc(O)cc2)C(=O)N[C@@H](CCCNC(=N)N)C(=O)N[C@@H](CC(N)=O)C(=O)O)NC(=O)[C@H](Cc2c[nH]cn2)NC(=O)[C@H](CC(C)C)NC(=O)[C@H](C(C)C)NC(=O)[C@H](Cc2ccccc2)NC(=O)[C@H](C)NC(=O)[C@H](CCCCN)NC3=O)NC(=O)[C@H](CCCCN)NC(=O)[C@H](CCCNC(=N)N)NC1=O [JZTX-X, Jingzhaotoxin-X] (H-LCSREGEFCYKLRKCCAGFYCKAFVLHCYRN-OH; disulfide 2-16, 9-21, 15-28; N-terminus assumed)
inhibition of Kv4.2 at resting potential without pulses (Kv4.2; -80 mV, no pulse during first ~100 s of treatment with 200 nM or 500 nM (order Kv4.2, Kv4.3), same as with pulses at 5 s intervals, n = 5): approximately 95% | IC50 (Kv4.2; HEK293t cells, 1 nM-10 μM, 300-ms step to +20 mV from -80 mV, 22-25°C, pH 7.4, Hill equation fit, n = 7, read-out: IC50 for Kv4.2 channels): 68 nM | Hill Coefficient, Kv4.2 (Kv4.2; HEK293t cells, +20 mV from -80 mV, n = 7): 0.91 | reversal of Kv4.2 inhibition after rinsing (Kv4.2; in 3 min following rinsing, high JZTX-X dose, HEK293t cells, n = 6): > 95% | effect on motor coordination ([1]; intrathecal and intraplantar): made no difference to the motor coordination in mice | time on accelerating rotarod ([1]; intraplantar, vehicle 118.8 ± 9.8 s): 113.4 ± 8.3 s | time on accelerating rotarod ([1]; intrathecal, vehicle 117.9 ± 7.6 s): 117.5 ± 7.8 s
